{"source": "patent US20240164369A1", "about": "“MESENCHYMAL STEM CELLS FOR USE IN INCREASING EX-VIVO ORGAN LIFE” (Amniotics AB, priority 2021, published 2024)", "key": {"[1]": {"test_system": "human PBMCs activated with aCD3/aCD28", "experiment": "cytokine analysis in co-culture supernatant after 24 hours (Luminex)", "assay_type": "cell-based", "details": "media 3", "procedure": "100 μl PBMCs were added per well. […] See also FIG. 23. Supernatant (24 hours incubation) was analysed for cytokines using the 12-[…]-12 Luminex kit. All reagents, standard and samples were prepared at room temperature and according to manufacturer's instruction. Briefly, 50 μl of standard or sample was added to wells. Microparticles were added to samples and standard and samples were incubated for 2 hours at room temperature on a horizontal orbital shaker (800 rpm). Plate was washed 3× in washing buffer using a magnetic plate. Biotin-antibody was added and incubated dark for 1 hour at room temperature on a horizontal orbital shaker (800 rpm). Plate was washed 3× in washing buffer using a magnetic plate. Streptavidin-PE was added to each well and incubated dark at room temperature on a horizontal orbital shaker (800 rpm) for 30 minutes. Plate was washed 3× in washing buffer using a magnetic plate. Microparticles were resuspended in 100 μl washing buffer, incubated for 2 minutes on a horizontal orbital shaker (800 rpm). Samples were analysed on a Bio-Rad Luminex analyzer."}, "[2]": {"test_system": "granulocytes and macrophages among human PBMCs activated with aCD3/aCD28", "experiment": "PBMC:MSC co-culture, macrophage composition and CFSE proliferation after 72 hours", "assay_type": "cell-based", "procedure": "(§1) Following activation, cells were analysed for effects on cellular composition after 24 hours and for effects on cellular composition and cell proliferation using CFSE after 72 hours. In addition, supernatants collected after 24 hours of activation were analysed for cytokine levels using Luminex.\n(§2) Peripheral Blood Mononuclear Cells (PBMCs) were isolated from leucocyte concentrate from three different donors (acquired from Blodcentralen, Lunds Universitetssjukhus, Lund, Sweden) through gradient centrifugation at 400×g for 40 minutes using Ficoll. Red blood cells (RBCs) were lysed using BD Pharmlyse buffer 10× diluted in milliQ water for 3 minutes at room temperature (RT). Cells were washed and the isolated PBMCs were pooled. Cell concentration was determined using a Scepter cell counter (Millipore Merck, MA. USA). Cells were diluted to 1×10^7 cells/ml in PBS. Pooled PBMCs were split into 2 different tubes. Cells in tube 1 was stained with CFSE at 5 μM for 5 minutes (dark, RT). CFSEstained cells were washed with an equal volume of FBS to stop the reaction and washed again with PBS. Cells in tube two was left in PBS.\nWhen plating controls, cells were spun down and diluted in M3 or M4 at 4*10^6 cells/ml, with a total amount of cells at 4*10^5 cells/well. 100 μl PBMCs were added per well. […] Medium was added to unstimulated control wells (700 μl/well). Cells were incubated for 24 or 72 hours at 37° ° C., 5% CO2. See also FIG. 23.\nAfter 72 hours of incubation, CFSE stained cells were stained with CD4, CD8, CD80, CD206 and CD163 in staining buffer. Briefly, cells were transferred to V bottom plates, centrifuged at 360×g for 2 min. Cells were washed in PBS, centrifuged at 360×g for 2 min at 4° C. Supernatant was flicked off and surface markers were added. Cells were incubated at +4° C. for 20 minutes. After incubation, cells were washed 1× in PBS, centrifuged at 360×g for 2 min at 4° ° C. Cells were resuspended in PBS and acquired using the Attune Nxt flow cytometer. Compensation was performed using beads • AbC Total Compensation capture beads and negative beads for surface markers. For CFSE compensation, newly CFSE stained cells were used. Since compensation was done using both beads and cells, FSC and SSC were changed and adjusted to beads or cells. Lasers were not changed after compensation. 2.3.4 Cytokine Analysis after 24 Hours of Activation (Luminex)\nGraphs were performed using Prism 8 for Mac OS X (GraphPad Software, San Diego, CA, USA). Results are presented as mean values±SEM, if not otherwise stated. Dot plots were acquired from analysis using FlowJo v10.6.1 for Mac (BD, New Jersey, USA)."}, "[3]": {"test_system": "granulocytes and macrophages among human PBMCs activated with aCD3/aCD28", "experiment": "PBMC:MSC co-culture, macrophage activation status after 24 hours (FACS)", "assay_type": "cell-based", "details": "Prednisolone 125 nM", "procedure": "as §1\n(§3) Peripheral Blood Mononuclear Cells (PBMCs) were isolated from leucocyte concentrate from three different donors (acquired from Blodcentralen, Lunds Universitetssjukhus, Lund, Sweden) through gradient centrifugation at 400×g for 40 minutes using Ficoll. Red blood cells (RBCs) were lysed using BD Pharmlyse buffer 10× diluted in milliQ water for 3 minutes at room temperature (RT). Cells were washed and the isolated PBMCs were pooled. Cell concentration was determined using a Scepter cell counter (Millipore Merck, MA. USA). Cells were diluted to 1×10^7 cells/ml in PBS. Pooled PBMCs were split into 2 different tubes. Cells in tube 1 was stained with CFSE at 5 μM for 5 minutes (dark, RT). CFSEstained cells were washed with an equal volume of FBS to stop the reaction and washed again with PBS. Cells in tube two was left in PBS. […]\n(§4) Following 24 hours of incubation, cells in FACS/Luminex plates were stained with antibodies detecting CD73, CD4, CD8, CD80, CD206, CD163 and PD-1 in staining buffer (PBS supplemented with 1% BSA). […] 150 μl was analysed from each sample."}, "[4]": {"test_system": "T cells among human PBMCs activated with aCD3/aCD28", "experiment": "PBMC:MSC co-culture, T cell activation status after 24 hours (FACS)", "procedure": "as §1, §3, §4"}, "[5]": {"test_system": "T cells among human PBMCs activated with aCD3/aCD28", "experiment": "PBMC:MSC co-culture, T cell composition and CFSE proliferation after 72 hours", "procedure": "as §1, §2\nWhen plating controls, cells were spun down and diluted in M3 or M4 at 4*10^6 cells/ml, with a total amount of cells at 4*10^5 cells/well. 100 μl PBMCs were added per well. […] Medium was added to unstimulated control wells (700 μl/well). […]"}}, "data": [{"smiles": "C[C@]12C=CC(=O)C=C1CC[C@@H]1[C@@H]2[C@@H](O)C[C@@]2(C)[C@H]1CC[C@]2(O)C(=O)CO", "note": "[Prednisolone]", "values": [{"measurement": "HGF level in supernatant", "setting": "[1]", "value": "inhibits"}, {"measurement": "IL-6 level in supernatant", "setting": "[1]", "value": "inhibits"}, {"measurement": "IL-12/IL-23 p40 level in supernatant", "setting": "[1]", "value": "inhibits"}, {"measurement": "TNF-a level in supernatant", "setting": "[1]", "value": "inhibits"}, {"measurement": "the other analysed cytokines, levels in supernatant", "setting": "[1]", "value": "No inhibitory effect"}, {"measurement": "M1 expression levels", "setting": "[2]", "value": "no effect"}, {"measurement": "M1 proliferation (CFSE)", "setting": "[2]", "value": "No effect"}, {"measurement": "M2 expression levels", "setting": "[2]", "value": "no effect"}, {"measurement": "M2 proliferation (CFSE)", "setting": "[2]", "value": "No effect"}, {"measurement": "macrophage cell composition", "setting": "[3]", "value": "did not have an effect"}, {"measurement": "composition of T helper cells (% CD4+ lymphocytes or MFI of CD4+ lymphocytes)", "setting": "[4]; 24 hours of incubation, vs control", "value": "higher levels"}, {"measurement": "inhibition of T cell activation", "setting": "[4]; 24 hours, CsA 10 μg/ml, Prednisolone 125 nM", "value": "only slightly inhibits"}, {"measurement": "effect on cytotoxic T cells (%)", "setting": "[5]", "value": "no effect"}, {"measurement": "effect on T helper cells (%)", "setting": "[5]; 72 hours of incubation", "value": "no effect"}]}]}
